The structures appear in SMILES notation.

The nature of data set [1]: RP, Waters ACQUITY UPLC HSS C18, 100 × 2.1 mm, 1.7 µm, 40 °C, 0.35 mL/min, estimated dead time 0.63 min; A: water + 0.1% formic acid; B: methanol + 0.1% formic acid; gradient (min/%B) 0/0.5 4/70 4.5/98 5.4/98. The conditions noted are these: stereoisomer not certain.
Data set [2] in a line: Waters ACQUITY UPLC BEH C18, 100 × 2.1 mm, 1.7 µm, 40 °C, 0.28 mL/min, estimated dead time 0.63 min; A: water + 6.5 mM ammonium hydroxide; B: methanol + 6.5 mM ammonium hydroxide; gradient (min/%B) 0/0.5 4/70 4.5/98 5.4/98. The conditions noted are these: stereoisomer not certain.

For `CC(C)NCC(O)COc1ccc(CC(N)=O)cc1` (centres undefined), the LC retention time in data set [1] is 2.35 min; in data set [2], 3.57 min.
As to `O=C(O)CCCCCCCCCO`, the LC retention time in data set [1] is 5.06 min; in data set [2] it was 3.96 min.
The matching figures for `NC(Cc1ccc(O)c([N+](=O)[O-])c1)C(=O)O` (centres undefined): 2.44 min and 1.1 min.
On the same counts, the results for `CCCCCC(=O)NCC(=O)O` are 4.08 min and 3.29 min.
As for `O=C(O)c1ccncc1`, the LC retention time in data set [1] is 0.877 min; in data set [2], 0.867 min.
For the molecule `NC(=O)NCCCC(N)C(=O)O` (centres undefined), the LC retention time in data set [1] was 0.766 min; in data set [2], 0.796 min.
For the molecule `Cn1c(=O)c2[nH]cnc2n(C)c1=O`, the LC retention time in data set [1] was 2.9 min; in data set [2], 2.75 min.
For `NC(=O)c1ccccc1O`, the LC retention time in data set [1] was 3.56 min; in data set [2], 3.12 min.
With `Nc1nc2c(ncn2C2OC3COP(=O)(O)OC3C2O)c(=O)[nH]1` (centres undefined), the LC retention time was 1.99 min in data set [1] and 1.87 min in data set [2].
Regarding `CC(=O)NC1C(O)OC(CO)C(O)C1OC(C)C(=O)O` (centres undefined), the LC retention time in data set [1] is 1.91 min; in data set [2], 0.854 min.
Turning to `CCC(C)(O)C(=O)O` (centres undefined), the LC retention time was 2.87 min in data set [1] and 0.857 min in data set [2].
Take `Nc1ccn(C2OC(CO)C3OP(=O)(O)OC32)c(=O)n1` (centres undefined): the LC retention time was 0.912 min in data set [1] and 0.926 min in data set [2].
With `O=C(O)c1ccc(CO)o1`, the LC retention time in data set [1] was 2.36 min; in data set [2], 0.87 min.
The matching figures for `Nc1nc2nccnc2c(=O)[nH]1`: 1.73 min and 1.57 min.
For `O=C(O)c1cc(=O)c2ccccc2[nH]1`, the results for the LC retention time in data set [1] and in data set [2] were 3.18 min and 2.57 min, respectively.
For `COC(=O)Cc1c[nH]c2ccccc12`, the LC retention time was 4.85 min in data set [1] and 5.01 min in data set [2].
On to `NC(=O)c1ncn(C2OC(CO)C(O)C2O)c1N` (centres undefined), for which the LC retention time in data set [1] was 1.58 min; in data set [2], 1.77 min.
On the same counts, the results for `CC(=O)OC(CC(=O)[O-])C[N+](C)(C)C` (centres undefined) are 0.864 min and 0.849 min.
Regarding `Nc1c(O)cccc1C(=O)O`, the LC retention time in data set [1] was 2.57 min; in data set [2], 0.924 min.
On to `CCOC(=O)c1ccc(N)cc1`, for which the LC retention time in data set [1] was 4.4 min; in data set [2], 4.61 min.
On the same counts, the results for `O=C(O)CNC(=O)c1cccnc1` are 1.74 min and 1.67 min.
`CSCCC(NC(C)=O)C(=O)O` (centres undefined): the LC retention time in data set [1] was 2.98 min; in data set [2], 2.07 min.
Regarding `NC(C(=O)O)c1ccc(O)cc1` (centres undefined), the LC retention time in data set [1] is 0.808 min; in data set [2], 0.818 min.
Regarding `CCCCCCC(O)C(=O)O` (centres undefined), the LC retention time in data set [1] was 5.18 min; in data set [2], 4.12 min.
For the molecule `O=CC(O)C1OC(=O)C(O)C1O` (centres undefined), the LC retention time in data set [2] was 0.884 min.
Still for that read-out and setting: the value for `CC1=C(CCC(=O)O)c2cc3nc(cc4[nH]c(cc5[nH]c(cc1n2)c(C)c5CCC(=O)O)c(CCC(=O)O)c4C)C(CCC(=O)O)=C3C` was 3.64 min; that for `Oc1ccccc1O` was 2.93 min; that for `[2H]C([2H])([2H])C([2H])([2H])C([2H])([2H])C([2H])([2H])C([2H])([2H])C([2H])([2H])C([2H])([2H])C(=O)O` was 4.67 min.
As for `COc1ccc(CC(=O)O)cc1OC`, the LC retention time in data set [2] was 2.66 min.
In the case of `O=C(O)c1ccc(O)c(O)c1`, in data set [2], the LC retention time is 0.797 min.
`Cc1ccc(OS(=O)(=O)O)cc1`: in data set [2], the LC retention time is 2.9 min.
For the molecule `NCC(O)CCC(N)C(=O)O` (centres undefined), the LC retention time in data set [2] was 0.78 min.
Regarding `O=C(O)C(O)c1ccccc1` (centres undefined), the LC retention time in data set [2] was 1.59 min.
On to `N#CCc1c[nH]c2ccccc12`, for which the LC retention time in data set [2] was 4.53 min.
For the molecule `O=S(=O)(O)CCO`, in data set [2], the LC retention time was 0.866 min.

These data come from the RepoRT retention time repository (doi:10.1038/s41586-021-03707-9).
